Source: patent US9809585B2, “Fluorinated 2-arylbenzo heterocyclic compound with high affinity to Aβ 946; plaques and containing chiral side chain substituent, and preparation method and usage thereof” (BEIJING ZHIBO BIO-MEDICAL TECHNOLOGY CO.,LTD, priority 2014, dated 2017)

Columns and labels:
protein polymer Aβ1-42 = target: T1, protein polymer Aβ1-42 (Homo sapiens, UniProt P05067); experiment: Competitive binding experiment (Ki assay) against [125I]IMPY; conditions: read-out: Ki (inhibition constant)
T1 construct: A receptor Aβ1-42 protein is prepared by an established method
T1 sequence (P05067 672-713 limits assumed): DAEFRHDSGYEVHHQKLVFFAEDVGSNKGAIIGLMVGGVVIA
Description: Competitive binding experiment (Ki assay): Put a protein polymer Aβ1-42 of a certain concentration and a radioactive ligand [^125I] […] (5) A glass fiber filter is soaked in a PBS solution containing 0.1% (volume fraction) of polyethyleneimine for 0.5 h. (6) Add 100 μL of a solution of a compound to be tested and of different concentrations, 100 μL of the [^125I] […] Seal the tub with parafilm and swirl it. (7) Shake the tube in a water bath constantly at 37° C. and maintain the incubation for 2 h. (8) Collect the reaction solution with a multi-phase cell collector. Rinse the collected solution with the PBS for three times, 3 mL for each rinse. (9) Count with a γ counter. (10) Process the data.

[1] = In-vivo biodistribution experiment on normal mice; parameters: species or system mice (ICR, male); conditions: for Bones radioactivity: tail vein injection
Description: The in-vivo pharmacokinetic properties of mice have been studied with the in-vivo biodistribution experiment, especially the absorption by the primitive brain and the removal from the brain.
Inject 5-10 μCi of a labeled compound (100 μL of a physiological saline solution containing 5% of ethanol) into normal mice (ICR, male, 20-22 g) (n=5) by tail vein injection. The mice are decapitated respectively 2 minutes, 10 minutes, 30 minutes and 60 minutes after the injection. Dissect the mice and take out the relevant organs. Measure the moisture content and the radioactivity amount. The measurement values represent the percentage of the radioactivity amount in an organ (% ID/organ) and the percentage of the radioactivity amount in the organ of one gram (% ID/g).

**Q.** Which Ki (protein polymer Aβ1-42) does the source give for `CNc1ccc(-c2nc3ccc(OC[C@@H](O)CF)cc3s2)cc1` [Compound 14r] here?
**A.** 0.0272 ± 0.0029 µM

**Q.** With `CNc1ccc(-c2nc3ccc(OC[C@H](O)CF)cc3s2)cc1` [Compound 14s] as the compound, how does the Ki (protein polymer Aβ1-42) read?
**A.** 0.026 ± 0.0065 µM

**Q.** Which Ki (protein polymer Aβ1-42) does the source give for `CN(C)c1ccc(-c2nc3ccc(OC[C@@H](O)CF)cc3s2)cc1` [Compound 15r] here?
**A.** 0.0032 ± 0.0011 µM

**Q.** With `CN(C)c1ccc(-c2nc3ccc(OC[C@H](O)CF)cc3s2)cc1` [Compound 15s] as the compound, how does the Ki (protein polymer Aβ1-42) read?
**A.** 0.0037 ± 0.0011 µM

**Q.** For `CNc1ccc(-c2nc3ccc(OC[C@@H](O)CF)cc3s2)cn1` [Compound 16r], which Ki (protein polymer Aβ1-42) is on record?
**A.** 0.0099 ± 0.0028 µM

**Q.** For `CNc1ccc(-c2nc3ccc(OC[C@H](O)CF)cc3s2)cn1` [Compound 16s], which Ki (protein polymer Aβ1-42) is on record?
**A.** 0.0454 ± 0.0118 µM

**Q.** With `CN(C)c1ccc(-c2nc3ccc(OC[C@@H](O)CF)cc3s2)cn1` [Compound 17r] as the compound, how does the Ki (protein polymer Aβ1-42) read?
**A.** 0.0111 ± 0.0054 µM

**Q.** For `CN(C)c1ccc(-c2nc3ccc(OC[C@H](O)CF)cc3s2)cn1` [Compound 17s], which Ki (protein polymer Aβ1-42) is on record?
**A.** 0.0272 ± 0.0071 µM

**Q.** Which Ki (protein polymer Aβ1-42) does the source give for `CNc1ccc(-c2nc3ccc(OC[C@@H](O)CF)cc3o2)cc1` [Compound 18r] here?
**A.** 0.129 ± 0.0402 µM

**Q.** Which Ki (protein polymer Aβ1-42) does the source give for `CNc1ccc(-c2nc3ccc(OC[C@H](O)CF)cc3o2)cc1` [Compound 18s] here?
**A.** 0.103 ± 0.0186 µM

**Q.** With `CN(C)c1ccc(-c2nc3ccc(OC[C@@H](O)CF)cc3o2)cc1` [Compound 19r] as the compound, how does the Ki (protein polymer Aβ1-42) read?
**A.** 0.0108 ± 0.0026 µM

**Q.** Which Ki (protein polymer Aβ1-42) does the source give for `CN(C)c1ccc(-c2nc3ccc(OC[C@H](O)CF)cc3o2)cc1` [Compound 19s] here?
**A.** 0.011 ± 0.0015 µM

**Q.** Which Ki (protein polymer Aβ1-42) does the source give for `CNc1ccc(-c2nc3cc(OC[C@@H](O)CF)ccc3o2)cc1` [Compound 28r] here?
**A.** 0.0853 ± 0.0052 µM

**Q.** With `CNc1ccc(-c2nc3cc(OC[C@H](O)CF)ccc3o2)cc1` [Compound 28s] as the compound, how does the Ki (protein polymer Aβ1-42) read?
**A.** 0.0673 ± 0.0055 µM

**Q.** Which Ki (protein polymer Aβ1-42) does the source give for `CN(C)c1ccc(-c2nc3cc(OC[C@@H](O)CF)ccc3o2)cc1` [Compound 29r] here?
**A.** 0.0076 ± 0.0028 µM

**Q.** With `CN(C)c1ccc(-c2nc3cc(OC[C@H](O)CF)ccc3o2)cc1` [Compound 29s] as the compound, how does the Ki (protein polymer Aβ1-42) read?
**A.** 0.0155 ± 0.0032 µM

**Q.** Which Ki (protein polymer Aβ1-42) does the source give for `CNc1ccc(-c2nc3cc(OC[C@@H](O)CF)ccc3o2)cn1` [Compound 30r] here?
**A.** 0.187 ± 0.039 µM

**Q.** For `CNc1ccc(-c2nc3cc(OC[C@H](O)CF)ccc3o2)cn1` [Compound 30s], which Ki (protein polymer Aβ1-42) is on record?
**A.** 0.196 ± 0.0491 µM

**Q.** For `CN(C)c1ccc(-c2nc3cc(OC[C@@H](O)CF)ccc3o2)cn1` [Compound 31r], which Ki (protein polymer Aβ1-42) is on record?
**A.** 0.0272 ± 0.0063 µM

**Q.** Which Ki (protein polymer Aβ1-42) does the source give for `CN(C)c1ccc(-c2nc3cc(OC[C@H](O)CF)ccc3o2)cn1` [Compound 31s] here?
**A.** 0.0574 ± 0.0076 µM

**Q.** What does the source list for `CN(C)c1ccc(-c2nc3ccc(OC[C@@H](O)C[18F])cc3s2)cc1` [Compound [^18F]15r]?
**A.** Bones radioactivity ([1]; 2 min.): 2.43 ± 0.53 % ID/g; Bones radioactivity ([1]; 10 min): 2.31 ± 0.26 % ID/g; Bones radioactivity ([1]; 30 min): 1.42 ± 0.27 % ID/g; Bones radioactivity ([1]; 1 h): 1.12 ± 0.59 % ID/g

**Q.** Which results are given for `CN(C)c1ccc(-c2nc3ccc(OC[C@H](O)C[18F])cc3s2)cc1` [Compound [^18F]15s]?
**A.** Bones radioactivity ([1]; 2 min.): 2.31 ± 0.71 % ID/g; Bones radioactivity ([1]; 10 min): 1.82 ± 0.39 % ID/g; Bones radioactivity ([1]; 30 min): 1.45 ± 0.48 % ID/g; Bones radioactivity ([1]; 1 h): 1.08 ± 0.38 % ID/g

**Q.** For `CNc1ccc(-c2nc3cc(OC[C@@H](O)C[18F])ccc3o2)cc1` [Compound [^18F]28r], which Bones radioactivity ([1]; 2 min.) is on record?
**A.** 1.41 ± 0.29 % ID/g

**Q.** And the Bones radioactivity ([1]; 10 min)?
**A.** 1.79 ± 0.21 % ID/g

**Q.** What about the Bones radioactivity ([1]; 30 min) of the same compound?
**A.** 1.19 ± 0.15 % ID/g

**Q.** What about the Bones radioactivity ([1]; 1 h) of the same compound?
**A.** 3.05 ± 0.86 % ID/g

**Q.** Which Bones radioactivity ([1]; 2 min.) does the source give for `CNc1ccc(-c2nc3cc(OC[C@H](O)C[18F])ccc3o2)cc1` [Compound [^18F]28s] here?
**A.** 1.63 ± 0.44 % ID/g

**Q.** What about the Bones radioactivity ([1]; 10 min) of the same compound?
**A.** 0.77 ± 0.11 % ID/g

**Q.** And the Bones radioactivity ([1]; 30 min)?
**A.** 0.52 ± 0.16 % ID/g

**Q.** And the Bones radioactivity ([1]; 1 h)?
**A.** 0.74 ± 0.13 % ID/g

**Q.** What does the source list for `CN(C)c1ccc(-c2nc3cc(OC[C@@H](O)C[18F])ccc3o2)cc1` [Compound [^18F]29r]?
**A.** Bones radioactivity ([1]; 2 min.): 2.12 ± 0.60 % ID/g; Bones radioactivity ([1]; 10 min): 1.24 ± 0.40 % ID/g; Bones radioactivity ([1]; 30 min): 1.36 ± 0.41 % ID/g; Bones radioactivity ([1]; 1 h): 1.93 ± 0.77 % ID/g

**Q.** Which results are given for `CN(C)c1ccc(-c2nc3cc(OC[C@H](O)C[18F])ccc3o2)cc1` [Compound [^18F]29s]?
**A.** removal from the brain [1]: quickly removed from the brain of normal mice; ratio of the absorption in 2 minutes to that in 60 minutes (brain) ([1]; brain): 27.8; Bones radioactivity ([1]; 2 min.): 2.06 ± 0.45 % ID/g; Bones radioactivity ([1]; 10 min): 0.99 ± 0.35 % ID/g; Bones radioactivity ([1]; 30 min): 0.85 ± 0.30 % ID/g; Bones radioactivity ([1]; 1 h): 1.13 ± 0.28 % ID/g
